Test results taken from patent publication US11701316B2, “Synergistic anti-inflammatory compositions” (The Procter & Gamble Company, priority 2020, dated 2023).
Values joined by “and” are separate entries in the source; they are usually repeats but may differ in a detail not shown here. Equal entries are not always repeated.

Columns and labels:
[1] = tested on: PGE2 release from keratinocytes; test: Prostaglandin E2 (PGE2) assay in UVB-stressed TERT keratinocytes, normalized to ATP activity; format: cell-based, human; conditions: tKC
Text: Inhibiting the Cell's Inflammation Response to a Stressor—Prostaglandin E2 (“PGE2”) Assay.
PGE2 is a hormone-like substance that is known to participate in modulation of inflammation. Cellular inflammation is associated with a variety of hair, skin and scalp conditions, and thus inhibiting PGE2 activation vis-à-vis cellular inflammation may help treat these types of hair, skin and scalp conditions.
TERT keratinocytes (“tKC”-tKCs are human keratinocytes which have been transfected with the human telomerase reverse transcriptase gene to immortalize the cells) are obtained from Jerry Shay, University of Texas, Southwestern and plated at 40,000 cells/well into 24-well plates in 1 ml/well volume. EpiLife Medium (Life Technologies cat # MEPICFPRF500) supplemented with keratinocyte growth supplement (Life technologies cat #S-001-5) is used as the assay media. The cells are grown to confluence/near confluence, (typically 24 hours after plating 40,000 cells/well in 24 well plate) and then subjected to 15 mJ/cm^2 UVB-stress (typically […] in BioSun). The test compositions (strobilurins, salicylic acid, strobilurins+salicylic acid, and positive control 10 uM idebenone) are added to replace the medium (EpiLife Medium with 0.1% final concentration of DMSO-briefly, 1000× stocks of actives and combinations made in 100% DMSO and diluted into Epilife media 1 to 1000), and the plates are incubated for 18-24 hours. The supernatant is removed from each well, and the cells are rinsed with 2 ml/well medium (without supplements). A Cell Titer-Glo assay (Promega cat # G7571; Madison Wis.) is used to measure ATP activity, is conducted on the cells for normalization. The supernatant is tested in a PGE2 assay (Prostaglandin E2 Assay kit from Cisbio Bioassays cat# 62P2APEB) according to the manufacturer's instructions. The PGE2 results are normalized to ATP activity. The PGE2 quantitation (pg/mL) from the supernatant is divided by the normalization factor (treatment ATP/control ATP).
Example Calculation to Compute PGE2 Inhibition by Strobilurin
Luminescence of vehicle control in ATP assay=704567
Luminescence of strobilurin treatment in ATP assay=678903
Normalization factor for strobilurin treatment=1.038
PGE2 quantitation for vehicle control=2458 pg/mL PGE2
PGE2 quantitation for strobilurin treatment=2347 pg/mL PGE2
Student's T-Test (equal variance, 2 sided) are used to calculate p-values between observed combinations and expected combinations with p-value <0.05 considered statistically significant. Expected combination values are calculated by adding the PGE2 inhibition values of strobilurins alone and salicylic acid alone. Synergy factor is simply the ratio of observed combination/expected combination. Synergy factors greater than 1.0 with a p-value <0.05 are deemed synergistic.

[2] = cited from earlier work
[3] = strobilurin alone, 1 × 10−5 w/v % (100:1), UVB
[4] = strobilurin alone, 1 × 10−6 w/v % (10:1), UVB
[5] = strobilurin alone, 1 × 10−7 w/v % (1:1), UVB
[6] = strobilurin alone, 1 × 10−7 w/v % (column 1:10), 15 mJ/cm2 UVB, 18-24 hours
[7] = strobilurin alone, 5 × 10−6 w/v % (50:1), UVB

SMILES | % PGE2 Inhibition [1, 3] [%] | % PGE2 Inhibition [1, 4] [%] | % PGE2 Inhibition [1, 5] [%] | % PGE2 Inhibition [1, 6] [%] | % PGE2 Inhibition [1, 7] [%] | solubility in water [2] | % PGE2 Inhibition ([1]; salicylic acid alone, 1 × 10−6 (column 1:10), UVB) | % PGE2 Inhibition ([1]; salicylic acid alone, 1 × 10−7 (1:1), UVB) | % PGE2 Inhibition ([1]; salicylic acid alone, 1 × 10−7 (10:1), UVB) | % PGE2 Inhibition ([1]; salicylic acid alone, 1 × 10−7 (50:1), UVB) | % PGE2 Inhibition ([1]; salicylic acid alone, 1 × 10−7 (100:1), UVB)
CO/C=C(/C(=O)OC)c1ccccc1Oc1cc(Oc2ccccc2C#N)ncn1 [azoxystrobin] | 58 | 22 | 8 | 8 | 37 | low |  |  |  |  | 
CNC(=O)/C(=N/OC)c1ccccc1COc1cc(C)ccc1C [dimoxystrobin] | 13 | 7 | 4 | 4 | 11 |  |  |  |  |  | 
CO/N=C(/C1=NOCCO1)c1ccccc1Oc1ncnc(Oc2ccccc2Cl)c1F [fluoxastrobin] | 42 | 9 | 5 | 5 | 17 |  |  |  |  |  | 
CO/N=C(/C(=O)OC)c1ccccc1COc1ccccc1C [kresoxim methyl] | 12 | 7 | 5 | 5 | 9 |  |  |  |  |  | 
CNC(=O)/C(=N/OC)c1ccccc1CO/N=C(C)/C(=N/OC)C(/C)=N/OC [orysastrobin] | 36 | 12 | 6 | 6 | 18 |  |  |  |  |  | 
CO/C=C(/C(=O)OC)c1ccccc1COc1cccc(C(F)(F)F)n1 [picoxystrobin] | 24 | 12 | 6 | 6 | 18 |  |  |  |  |  | 
COC(=O)N(OC)c1ccccc1COc1ccn(-c2ccc(Cl)cc2)n1 [pyraclostrobin] | 70.4 | 46.0 | 30.4 | 30.4 | 55.3 |  |  |  |  |  | 
O=C(O)c1ccccc1O [salicylic acid, reference compound] |  |  |  |  |  |  | 32% and 31.4% | 18% and 16.2% | 18% and 16.2% | 18% and 16.2% | 18% and 16.2%
CON=C(C(=O)OC)c1ccccc1CON=C(C)c1cccc(C(F)(F)F)c1 [trifloxystrobin] | 8 | 7 | 5 | 5 | 8 |  |  |  |  |  | 
